Test results as given in patent US20250049795A1, “USE OF 5-(2-((5-(4-(DIMETHYLAMINO)PIPERIDIN-1-YL)PYRIDIN-2-YL)AMINO)-5-FLUOROPYRIMIDIN-4-YL)-N,4-DIMETHYLTHIAZOL-2-AMINE IN COMBINATION THERAPIES FOR CANCER” (Aucentra Therapeutics Pty Ltd, priority 2022, published 2025).
Entries after “also recorded” stand apart in the source; their conditions may differ.

How the values were obtained:
CDK4/cyclin D1 = biological target: T1, CDK4/cyclin D1 (Homo sapiens, UniProt P11802); assay: CDK inhibition, kinase assay (radiometric / ADP Glo); type: biochemical
T1 construct: purchased Eurofins Pharma Discovery or Reaction Biology Corporation (radiometric service)
T1 sequence (P11802 whole entry): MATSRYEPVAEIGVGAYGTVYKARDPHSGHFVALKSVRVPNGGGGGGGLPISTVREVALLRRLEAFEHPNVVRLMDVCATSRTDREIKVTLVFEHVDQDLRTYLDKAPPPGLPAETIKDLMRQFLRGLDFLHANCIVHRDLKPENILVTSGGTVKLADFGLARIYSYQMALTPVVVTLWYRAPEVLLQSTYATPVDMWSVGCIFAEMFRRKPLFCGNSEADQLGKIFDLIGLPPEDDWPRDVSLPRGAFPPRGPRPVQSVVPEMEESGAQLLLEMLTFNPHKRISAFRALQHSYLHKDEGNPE
T1 sequence (P24385 whole entry partner): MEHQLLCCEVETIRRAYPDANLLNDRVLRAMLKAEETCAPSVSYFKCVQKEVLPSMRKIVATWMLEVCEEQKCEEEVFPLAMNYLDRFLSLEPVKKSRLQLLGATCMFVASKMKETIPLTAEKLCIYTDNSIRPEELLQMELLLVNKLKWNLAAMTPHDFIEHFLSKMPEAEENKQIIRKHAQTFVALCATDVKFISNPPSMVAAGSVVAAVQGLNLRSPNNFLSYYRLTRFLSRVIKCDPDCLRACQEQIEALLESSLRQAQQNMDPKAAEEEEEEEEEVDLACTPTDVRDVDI
Method: Serial dilutions of 1:3 were prepared for test compounds for 10 concentrations (from 10 μM to 0.5 nM). […] Positive and negative controls were performed in the presence and absence of CDK kinases, respectively. Half-maximal inhibition (IC50) values were calculated using a 4-parameter logistic non-linear regression model with Graphpad prism (Version 6.0). Apparent inhibition constants (Ki) values were calculated from Km (ATP) and IC50 values for the respective kinases.

[1] = tested on: CT26.WT colorectal cancer cells; assay: In vivo anti-tumour activity in mice with a colorectal cancer syngeneic allograft; design: species or system mouse
Method: Murine triple-negative breast cancer EMT6 tumour cells (ATCC® CRL-2755™) and colorectal cancer CT26.WT cells (ATCC® CRL-2638™) were cultured and expanded in RPMI-1640 medium (Roswell Park Memorial Institute Medium-1640) with L-glutamine and sodium bicarbonate (Sigma-Aldrich, Macquarie Park, NSW, Australia) supplemented with 10% heat-inactivated foetal bovine serum (FBS). Cells were cultured in an incubator at 5% CO2 37° C.
(§1) CT26.WT colorectal cancer cells were harvested and re-suspended in a 1:1 mixture of Matrigel™ (#354234; Corning Life Sciences, Corning, NY, United States of America) and serum-free RPMI-1640 medium, and thereafter injected sub-cutaneously (sc) (7×10^5 cells in a volume of 100 μL) into the right flank of each female BALB/c mouse. After the tumour volume reached ˜100 mm^3, the mice were randomised into two groups (n=8/group) and given vehicle (1% CMC in water), compound 1 (150 mg/kg) once daily by oral administration (QD PO), Anti-PD1 (RMP1-14-derived mouse monoclonal antibody, Assay Matrix, Australia; […]) by intraperitoneal (ip) administration, or compound 1 plus anti-PD-1 antibody (FIG. 1).

[2] = tested on: T cell populations (CD3+, CD8+); assay: Flow cytometry study of immune profiles in CT26.WT syngeneic mouse model; type: in vivo; conditions: day 14 of dosing, 3 mice of each group
Source text: FIG. 2 provides further graphical results showing the in vivo anti-tumour efficacy of compound 1 in the CT26.WT syngeneic mouse model through activation of immunity. In the experiment, on day 14 of dosing, 3 mice of each group were sacrificed for flow cytometry study of immune profiles.
as §1, with “1). Compound 1 achieved significant tumour growth inhibition with a T/C=24% when used alone, and T/C=14% when used in the combination with the anti-PD-1 antibody, as measured on day 14 of dosing (FIG. 1).” for “1).”

[3] = tested on: other members of CDK family; assay: Kinase profiling of CDK family; type: biochemical
Method: Eurofins Pharma Discovery or Reaction Biology Corporation Kinase Profiler services were used to measure inhibition of CDKs and other kinases by radiometric assay (RIA). Inhibition of CDK4/cyclin D1, CDK6/cyclin D3 and CDK9/cyclin T1 were also determined using ADP Glo Kinase assays (Promega Corporation, Madison WI, United States of America). Briefly, the kinase reaction for CDK4/cyclin D1 and CDK6/cyclin D3 was performed with kinase reaction buffer ([…] Tris base pH 7.5, 20 mM MgCl2, 0.4 mM DTT), 0.1 mg/ml BSA and RB-CTF substrate (retinoblastoma protein1 C-terminal fraction). For CDK9/cyclin T1, the kinase reaction was performed with standard assay buffer and Kinase Dilution Buffer and RBER-IRStide substrate. Serial dilutions of 1:3 were prepared for test compounds for 10 concentrations (from 10 μM to 0.5 nM). The kinase reactions were started by addition of ATP, incubated for 40 min at […] and then stopped by adding 10 μL of ADP Glo reagent. […] Luminescence was measured using an EnVision Multilabel plate reader (PerkinElmer, Buckinghamshire, United Kingdom). […] Half-maximal inhibition (IC50) values were calculated using a 4-parameter logistic non-linear regression model with Graphpad prism (Version 6.0). Apparent inhibition constants (Ki) values were calculated from Km (ATP) and IC50 values for the respective kinases.

CNc1nc(C)c(-c2nc(Nc3ccc(N4CCC(N(C)C)CC4)cn3)ncc2F)s1 [Compound 1, 5-(2-((5-(4-(dimethylamino)piperidin-1-yl)pyridin-2-yl)amino)-5-fluoropyrimidin-4-yl)-N,4-dimethylthiazol-2-amine]
selectivity for CDK4 over CDK6 (CDK4/cyclin D1): 140 fold | extended survival of animals ([1]; BALB/c mice, CT26.WT allograft, compound 1 150 mg/kg QD PO, anti-PD1 ip, p<0.001): 60% | survival of the mice (in words) ([1]; BALB/c mice, CT26.WT allograft, p<0.001): significantly prolong the survival | tumor volume in treatment vs control ratio (T/C) ([1]; female BALB/c mice, sc CT26.WT allograft, day 14 of dosing, compound 1 150 mg/kg QD PO, Anti-PD1 150 g/mouse/wk ip): 24% | T cell populations (% CD3+ and % CD8+) in spleen, blood and tumour samples [2]: increased T cell populations; also recorded: increased level | activity against other members of CDK family [3]: no activity
